Results reported in patent publication US10449348B2, “Devices and methods for enhancing the topical application of a benefit agent” (Johnson & Johnson Consumer Inc., priority 2015, dated 2019).

Assay: In vitro skin permeation study, Franz diffusion cell, passive diffusion or sonophoresis
Format: in vitro ADME, human
Description: The experimental setup to run sonophoresis (ultrasound) studies with Franz cell diffusion cells consisted of a custom-built universal generator capable of driving ultrasonic transducers in the 20 kHz-2 MHz range with electronic power up to 60 W (Voltage+/−30V, Current: 2 A, duty cycle 50%) with a square waveform. The real power delivered to the transducer depended on the specific experimental conditions and is specified for each experiment. The driving waveform was delivered to the transducer through a coaxial cable having a BNC connector at one end and a custom non-coaxial connector at the transducer end.
The transducer was piezoelectric and had either a disk shaped form (either 20 or 25 mm in diameter) or a rectangular shape 10×20 mm^2). The thickness of the transducer depended on its fundamental frequency being inversely proportional with it. In order to prevent the liquid or the gel from perturbing the electrical connection, each transducer was encapsulated in a plastic case leaving only one side of the transducer exposed to the topical composition. The case was made out of a rigid plastic and the transducers were sealed with silicone adhesive to enable them to oscilalte more or less freely. The case also enabled the electrical connections to be isolated from the topical composition.
For sonophoresis experiments where the ultrasonic wave energy was delivered perpendicular to the skin, disk-shaped transducers were used in the encapsulation setup described above. For the angled ultrasound application the case encapsulating the ultrasonic transducer was assembled in a hinged configuration, enabling angles between 15 and 90 degrees (perpendicular). Note: an angle of 0 degrees would send the ultrasonic wave parallel with the skin surface.
In vitro skin permeation studies on 5% Ibuprofen gel compositions without ultrasound (passive diffusion), or facilitated by the application of ultrasound (sonophoresis), through human cadaver skin were performed as follows:
A skin penetration study evaluated the penetration of ibuprofen through the human skin for the inventive sample prepared as disclosed in Example 1. A commercial ibuprofen gel product, IBULEVE Ibuprofen Gel (by DDD ltd, Watford, Herts, WD18 7JJ, UK) was used as a benchmark, which contains 5% W/W ibuprofen, also IMS (Industrial Methylated Spirits), carbomer, propylene glycol, diethylamine and purified water according to the product label on its package. A well-known Franz diffusion cell method (taught in US20020006418 A1 which is hereby incorporated by reference) was used. […] A magnetic stirrer bar was added in the […]. The liquid receptor was filled with Phosphate-buffered saline (PBS) solution. Air bubbles in the […] were removed. The system was thermostated at 37° C. above a magnetic stirrer to ensure the homogeneity of the liquid receptor during the experiment. A human cadaver skin sample from a commercial tissue bank (Ohio Valley Tissue and Skin Center, Cincinnati, Ohio, dermatomed to approximately 0.4 mm) was cut to fit the glass diffusion cell and the skin was mounted on the Franz cell.
For the diffusion cells designated to be tested for passive diffusion, a test gel sample of 0.2 ml was applied on the skin surface. For the diffusion cells designated to test for sonophoresis, additional test sample (2-5 ml) was added in order to assure the entire, or at least a large portion, of the ultrasonic transducer tip was immersed by the test gel during the ultrasound treatment. The excess gel was promptly removed from the donor cell after the ultrasound treatment so that the remaining test gel was approximately 0.2 ml.
Ultrasound treatments were carried out with the following test conditions: • a) Conventional ultrasound treatment with 90 degree angle (°) between the ultrasound direction and the skin surface; • b) Angled Ultrasound treatment with less than 90 degree angle between the ultrasound direction and the skin surface. […]

permeation enhancement factor (15 degree UT sonophoresis vs without ultrasound, 6th hour): approximately 3.0 fold | permeation enhancement factor (15 degree UT sonophoresis vs without ultrasound, 24th hour): approximately 3.0 fold | ibuprofen permeation through the human skin versus no ultrasound (15 degree ultrasound treatment): significantly enhanced | ibuprofen permeation through the human skin versus no ultrasound (45 degree angled sonophoresis): significantly enhanced | permeation enhancement factor (60 degree UT sonophoresis vs without ultrasound, 6th hour): approximately 2.9 fold | permeation enhancement factor (60 degree UT sonophoresis vs without ultrasound, 24th hour): ~2.0 fold | ibuprofen permeation through the human skin versus no ultrasound (60 degree angled sonophoresis): significantly enhanced | permeation enhancement factor (90 degree UT sonophoresis vs without ultrasound, 6th hour): approximately 2.3 fold | permeation enhancement factor (90 degree UT sonophoresis vs without ultrasound, 24th hour): ~2.0 fold | ibuprofen permeation through the human skin versus no ultrasound (90 degree ultrasound treatment): significantly enhanced
SMILES: CC(C)Cc1ccc(C(C)C(=O)O)cc1 (stereo not shown) [ibuprofen]
